The series can be described thus: UV absorption spectrum (UV-VIS) in 2-propanol. The conditions noted are these: for UV absorption maximum λ / ε at the UV absorption maximum: in 2-propanol; for UV-vis λmax: several maxima listed. Format: physicochemical. As for the experimental part: The UV-VIS spectrum was measured on a Varian Cary 100 biospectrophotometer fitted with a heated cell holder (concentration=0.001 g/100 ml of 2-propanol; cell thickness d=1 cm; wavelength range: 200 to 800 nm).
The UV-VIS spectrum was measured on a Varian Cary 100 biospectrophotometer fitted with a heated cell holder (concentration=0.001 g/ 100 ml of 2-propanol; cell thickness d=1 cm; wavelength range: 200 to 800 nm).

Experimental findings from patent US7128900B2, “Light-protection agents” (Merck Patent GmbH, priority 2002, dated 2006) are described below.

Each structure is given as a SMILES string. Values joined by “and” are separate entries in the source; they are usually repeats but may differ in a detail not shown here. Identical values can stand only once.

`COc1ccc(-c2cc(=O)c3cc(O)ccc3o2)cc1` [Example 1, 4′-methoxy-6-hydroxyflavone]: the “UV absorption maximum λ” value was found to be 322 nm and the “ε at the UV absorption maximum” value turned out to be 24790.

As to `O=c1cc(-c2ccc(O)cc2)oc2cc(O)ccc12` [Example 3, 4′,7-dihydroxyflavone], the “UV absorption maximum λ” value is listed as 329 nm and the “ε at the UV absorption maximum” value was determined as 27960.

Take `COc1ccc(-c2cc(=O)c3ccc(OC4O[C@H](CO)[C@@H](O)[C@H](O)[C@H]4O)cc3o2)cc1` (stereo partly drawn) [Example 4, 4′-methoxy-7-β-glucosidylflavone]: the “UV absorption maximum λ” value turned out to be 318 nm and the “ε at the UV absorption maximum” value was 37185.

Turning to `COc1cc(-c2cc(=O)c3cc(O)c(O)cc3o2)cc(OC)c1OC` [Example 5, 2-(3′,4′,5′-trimethoxyphenyl)-6,7-dihydroxy-4-oxo-4H-1-benzopyran], for the setting “2-propanol, 1 mg/100 ml, 281 nm”, the “UV-vis (e) at λmax 281 nm” value is reported as 8267. The “UV-vis (e) at λmax 324 nm” value (2-propanol, 1 mg/100 ml, 324 nm) is reported as 16036. Moreover, the “UV-vis λmax” value (2-propanol, 1 mg/100 ml) is 281 nm and 324 nm.

For the compound `O=c1cc(-c2ccc(O)cc2)oc2ccc(O)cc12` [Example 6, 2-(4′-hydroxyphenyl)-6-hydroxy-4-oxo-4H-1-benzopyran], the “UV-vis (e) at λmax 228 nm” value (2-propanol, 1 mg/100 ml, 228 nm) amounted to 23068. For the same compound, the “UV-vis (e) at λmax 277 nm” value (2-propanol, 1 mg/100 ml, 277 nm) came out at 14805. Also, the “UV-vis (e) at λmax 328 nm” value (2-propanol, 1 mg/100 ml, 328 nm) came out at 30971. Also, the “UV-vis λmax” value (2-propanol, 1 mg/100 ml) was 228 nm and 277 nm and 328 nm.
